# Experimental data from PubChem BioAssay (NCI).
#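 Protocol summary: plate cells (96-well), add compound at 5 concentrations, incubate 48 h, interpolate endpoints linearly. The concentration for full growth arrest is given as TGI.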
# What was measured:
# Test in all cases: DTP human tumour cell line panel, 48 h
# HOP-92 NSCLC = tested on: HOP-92 NSCLC
# SF-268 CNS = tested on: SF-268 CNS
# DLD-1 colon = tested on: DLD-1 colon
# 786-0 renal = tested on: 786-0 renal
# HT29 colon = tested on: HT29 colon
# MOLT-4 leukemia = tested on: MOLT-4 leukemia
# CCRF-CEM leukemia = tested on: CCRF-CEM leukemia
# NCI-H460 lung = tested on: NCI-H460 lung
# NCI-H23 lung = tested on: NCI-H23 lung
# SF-539 CNS = tested on: SF-539 CNS
# SN12C renal = tested on: SN12C renal
# OVCAR-5 ovarian = tested on: OVCAR-5 ovarian
# SW-620 colon = tested on: SW-620 colon
# K-562 leukemia = tested on: K-562 leukemia
# OVCAR-3 ovarian = tested on: OVCAR-3 ovarian
# HOP-18 NSCLC = tested on: HOP-18 NSCLC
# A498 renal = tested on: A498 renal
# HOP-62 NSCLC = tested on: HOP-62 NSCLC
# OVCAR-8 ovarian = tested on: OVCAR-8 ovarian
# UACC-257 melanoma = tested on: UACC-257 melanoma
# SNB-75 CNS = tested on: SNB-75 CNS
# HCC-2998 colon = tested on: HCC-2998 colon
# SK-MEL-5 melanoma = tested on: SK-MEL-5 melanoma
# UACC-62 melanoma = tested on: UACC-62 melanoma
# SNB-78 CNS = tested on: SNB-78 CNS
# DMS 114 small cell lung = tested on: DMS 114 small cell lung
# RPMI-8226 leukemia = tested on: RPMI-8226 leukemia
# NCI-H226 lung = tested on: NCI-H226 lung
# RXF-631 renal = tested on: RXF-631 renal
# SNB-19 CNS = tested on: SNB-19 CNS
# M19-MEL melanoma = tested on: M19-MEL melanoma
# NCI-H522 lung = tested on: NCI-H522 lung
# EKVX NSCLC = tested on: EKVX NSCLC
# KM20L2 colon = tested on: KM20L2 colon
# SK-OV-3 ovarian = tested on: SK-OV-3 ovarian
# HCT-116 colon = tested on: HCT-116 colon
# LXFL 529 NSCLC = tested on: LXFL 529 NSCLC
# SK-MEL-28 melanoma = tested on: SK-MEL-28 melanoma
# RXF 393 renal = tested on: RXF 393 renal
# HCT-15 colon = tested on: HCT-15 colon
# TK-10 renal = tested on: TK-10 renal
# CAKI-1 renal = tested on: CAKI-1 renal
# KM12 colon = tested on: KM12 colon
# A549 NSCLC = tested on: A549 NSCLC
# U251 CNS = tested on: U251 CNS
# MALME-3M melanoma = tested on: MALME-3M melanoma
# ACHN renal = tested on: ACHN renal
# IGROV1 ovarian = tested on: IGROV1 ovarian
# OVCAR-4 ovarian = tested on: OVCAR-4 ovarian
# UO-31 renal = tested on: UO-31 renal
# COLO 205 colon = tested on: COLO 205 colon
# SK-MEL-2 melanoma = tested on: SK-MEL-2 melanoma
# M14 melanoma = tested on: M14 melanoma
# SF-295 CNS = tested on: SF-295 CNS
# HL-60(TB) leukemia = tested on: HL-60(TB) leukemia
# DMS 273 small cell lung = tested on: DMS 273 small cell lung
# XF 498 CNS = tested on: XF 498 CNS
# LOX IMVI melanoma = tested on: LOX IMVI melanoma
compound,measurement,setting,value
COc1cc(CC(=O)c2ccc3c(c2)OCO3)cc(OC)c1OC,TGI,HOP-92 NSCLC,> 100 µM
same,TGI,SF-268 CNS,> 100 µM
same,TGI,DLD-1 colon,> 100 µM
same,TGI,786-0 renal,> 100 µM
same,TGI,HT29 colon,> 100 µM
same,TGI,MOLT-4 leukemia,> 100 µM
same,TGI,CCRF-CEM leukemia,> 100 µM
same,TGI,NCI-H460 lung,> 100 µM
same,TGI,NCI-H23 lung,> 100 µM
same,TGI,SF-539 CNS,> 100 µM
same,TGI,SN12C renal,> 100 µM
same,TGI,OVCAR-5 ovarian,> 100 µM
same,TGI,SW-620 colon,46.3 µM
same,TGI,K-562 leukemia,> 100 µM
same,TGI,OVCAR-3 ovarian,> 100 µM
same,TGI,HOP-18 NSCLC,> 100 µM
same,TGI,A498 renal,> 100 µM
same,TGI,HOP-62 NSCLC,> 100 µM
same,TGI,OVCAR-8 ovarian,> 100 µM
same,TGI,UACC-257 melanoma,> 100 µM
same,TGI,SNB-75 CNS,> 100 µM
same,TGI,HCC-2998 colon,> 100 µM
same,TGI,SK-MEL-5 melanoma,> 100 µM
same,TGI,UACC-62 melanoma,> 100 µM
same,TGI,SNB-78 CNS,> 100 µM
same,TGI,DMS 114 small cell lung,92.7 µM
same,TGI,RPMI-8226 leukemia,> 100 µM
same,TGI,NCI-H226 lung,> 100 µM
same,TGI,RXF-631 renal,> 100 µM
same,TGI,SNB-19 CNS,> 100 µM
same,TGI,M19-MEL melanoma,> 100 µM
same,TGI,NCI-H522 lung,> 100 µM
same,TGI,EKVX NSCLC,> 100 µM
same,TGI,KM20L2 colon,> 100 µM
same,TGI,SK-OV-3 ovarian,> 100 µM
same,TGI,HCT-116 colon,> 100 µM
same,TGI,LXFL 529 NSCLC,> 100 µM
same,TGI,SK-MEL-28 melanoma,> 100 µM
same,TGI,RXF 393 renal,> 100 µM
same,TGI,HCT-15 colon,> 100 µM
same,TGI,TK-10 renal,> 100 µM
same,TGI,CAKI-1 renal,> 100 µM
same,TGI,KM12 colon,> 100 µM
same,TGI,A549 NSCLC,> 100 µM
same,TGI,U251 CNS,> 100 µM
same,TGI,MALME-3M melanoma,> 100 µM
same,TGI,ACHN renal,> 100 µM
same,TGI,IGROV1 ovarian,> 100 µM
same,TGI,OVCAR-4 ovarian,> 100 µM
same,TGI,UO-31 renal,> 100 µM
same,TGI,COLO 205 colon,> 100 µM
same,TGI,SK-MEL-2 melanoma,> 100 µM
same,TGI,M14 melanoma,> 100 µM
same,TGI,SF-295 CNS,> 100 µM
same,TGI,HL-60(TB) leukemia,> 100 µM
C/C(=N/Nc1ccc([N+](=O)[O-])cc1[N+](=O)[O-])C(CC(C(=O)Nc1ccccc1C)/C(C)=N\Nc1ccc([N+](=O)[O-])cc1[N+](=O)[O-])C(=O)Nc1ccccc1C (stereo unspecified),TGI,HOP-92 NSCLC,15.5 µM
same,TGI,SF-268 CNS,23.7 µM
same,TGI,DLD-1 colon,> 100 µM
same,TGI,786-0 renal,41.3 µM
same,TGI,HT29 colon,28 µM
same,TGI,CCRF-CEM leukemia,> 100 µM
same,TGI,NCI-H460 lung,36.4 µM
same,TGI,DMS 273 small cell lung,41.7 µM
same,TGI,NCI-H23 lung,25.5 µM
same,TGI,SF-539 CNS,25.8 µM
same,TGI,SN12C renal,12.7 µM
same,TGI,OVCAR-5 ovarian,31 µM
same,TGI,SW-620 colon,42.3 µM
same,TGI,K-562 leukemia,> 100 µM
same,TGI,OVCAR-3 ovarian,22.4 µM
same,TGI,HOP-18 NSCLC,28.9 µM
same,TGI,A498 renal,34 µM
same,TGI,HOP-62 NSCLC,30.6 µM
same,TGI,OVCAR-8 ovarian,14 µM
same,TGI,UACC-257 melanoma,43.9 µM
same,TGI,SNB-75 CNS,29.4 µM
same,TGI,HCC-2998 colon,60.8 µM
same,TGI,SK-MEL-5 melanoma,36.8 µM
same,TGI,UACC-62 melanoma,69.4 µM
same,TGI,SNB-78 CNS,52.2 µM
same,TGI,DMS 114 small cell lung,17.7 µM
same,TGI,RPMI-8226 leukemia,> 69.3 µM
same,TGI,NCI-H226 lung,19.3 µM
same,TGI,XF 498 CNS,33.8 µM
same,TGI,SNB-19 CNS,32 µM
same,TGI,M19-MEL melanoma,28.1 µM
same,TGI,NCI-H522 lung,41.8 µM
same,TGI,LOX IMVI melanoma,36 µM
same,TGI,EKVX NSCLC,38 µM
same,TGI,KM20L2 colon,> 88.3 µM
same,TGI,SK-OV-3 ovarian,> 61.2 µM
same,TGI,HCT-116 colon,26.4 µM
same,TGI,LXFL 529 NSCLC,27.9 µM
same,TGI,SK-MEL-28 melanoma,51.1 µM
same,TGI,RXF 393 renal,24.3 µM
same,TGI,HCT-15 colon,> 63.5 µM
same,TGI,TK-10 renal,60.1 µM
same,TGI,CAKI-1 renal,30 µM
same,TGI,KM12 colon,38.5 µM
same,TGI,A549 NSCLC,64.6 µM
same,TGI,U251 CNS,14 µM
same,TGI,MALME-3M melanoma,> 63.1 µM
same,TGI,ACHN renal,> 49.6 µM
same,TGI,IGROV1 ovarian,32.1 µM
same,TGI,OVCAR-4 ovarian,15.9 µM
same,TGI,UO-31 renal,39.9 µM
same,TGI,COLO 205 colon,25.4 µM
same,TGI,SK-MEL-2 melanoma,28.2 µM
same,TGI,M14 melanoma,46 µM
same,TGI,SF-295 CNS,33.9 µM
same,TGI,HL-60(TB) leukemia,> 100 µM
